# Measurements as given in PubChem BioAssay (NCI).
# Values joined by “and” are separate entries in the source; they are usually repeats but may differ in a detail not shown here. Equal entries are not always repeated.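 Interpolation was linear, between the two tested concentrations surrounding the appropriate level; five concentrations were tested over 48 hours in 96-well plates. Abbreviation: GI50, concentration required for 50% inhibition of growth. TGI: total growth inhibition.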
# Legend:
# Test in all cases: growth of human tumour cells (NCI), 48 h
# [1] = test system: 786-0 renal
# [2] = test system: HCT-15 colon
# [3] = test system: MALME-3M melanoma
# [4] = test system: NCI-H522 lung
# [5] = test system: OVCAR-3 ovarian
# [6] = test system: OVCAR-4 ovarian
# [7] = test system: OVCAR-5 ovarian
# [8] = test system: SF-295 CNS
# [9] = test system: SK-MEL-2 melanoma
# [10] = test system: U251 CNS
Structure (SMILES),GI50 [1] [µM],TGI [1],GI50 [2] [µM],TGI [2],GI50 [3] [µM],TGI [3],GI50 [4] [µM],TGI [4],GI50 [5] [µM],TGI [5],GI50 [6] [µM],TGI [6],GI50 [7] [µM],TGI [7],GI50 [8] [µM],TGI [8],GI50 [9] [µM],TGI [9],GI50 [10] [µM],TGI [10]
C/C(=C\c1ccn(-c2ccc(N)c(C(F)(F)F)c2)n1)[C@@H]1C[C@@H]2O[C@]2(C)CCC[C@H](C)[C@H](O)[C@@H](C)C(=O)C(C)(C)[C@@H](O)CC(=O)O1,0.0175,12.1 µM,0.0109,> 27.8 µM,0.015,16.7 µM,0.0085,0.0576 µM,0.00997,1.46 µM,0.132,> 32.5 µM,0.025,> 26.1 µM,0.0155,7.23 µM,0.0241,10.4 µM,< 0.012,8.55 µM
CCOC(=O)[C@H](CSSc1ncnc2cc[nH]c12)NC(=O)[C@@H](C)c1ccc2cc(OC)ccc2c1,0.347,> 100 µM,1.73,> 100 µM,4.02,> 96.5 µM,0.303,> 31.5 µM,0.125,> 100 µM,2.03,> 100 µM,0.929,> 100 µM,0.438,> 100 µM,0.791,> 29 µM,4.77,> 100 µM
CN(C)CC/C=C1\c2ccccc2Sc2ccc(Cl)cc21,2.5,6.88 µM and 25.6 µM,3.79,14 µM and 30.6 µM,1.71,3.47 µM and 28 µM,1.67,3.23 µM and 29.1 µM,3.99,13.5 µM and 26.8 µM,3.72,13.9 µM and 28.5 µM,4.61,17.9 µM and 27.8 µM,1.78,4.09 µM and 29.7 µM,1.95,3.71 µM and 31.7 µM,1.92,4.66 µM and 26.9 µM
CC(=O)[CH-]C(=O)c1ccccc1.CC(=O)[CH-]C(=O)c1ccccc1.O=C([O-])C[O-].O=C([O-])C[O-].[Ti+4],71.7,> 100 µM,30.9,> 100 µM,34.3,> 100 µM,17.5,70.5 µM,42.7,> 100 µM,41,> 100 µM,> 100,> 100 µM,50.7,> 100 µM,30.5,> 100 µM,32,> 100 µM
O=C(O)C1C2C=CC(O2)C1C(=O)Nc1ccccc1 (centres undefined),–,> 100 µM,–,> 100 µM,–,> 100 µM,–,> 100 µM,–,> 100 µM,–,> 100 µM,–,> 100 µM,–,> 100 µM,–,> 100 µM,–,> 100 µM
Cc1cc(Cl)ccc1Nc1sc(C(=O)c2cc3cc(Cl)ccc3o2)c(N)c1C#N,–,28.6 µM,–,> 100 µM,–,> 100 µM,–,21.9 µM,–,> 55.3 µM,–,25.1 µM,–,> 100 µM,–,> 100 µM,–,> 100 µM,–,16.2 µM
COc1ccc(C(=O)/C=C/c2cc3ccccc3[nH]c2=O)cc1,–,> 37.4 µM,20.3,> 59.6 µM,40.8,> 100 µM,13.5,24.5 µM,17.9,36.4 µM,19.5,> 100 µM,21.9,> 56.8 µM,20.3,> 57.1 µM,23,> 73.8 µM,17.5,43 µM
